Results reported in patent publication US5686606A, “UCF116 compounds” (Kyowa Hakko Kogyo, Co., Ltd., priority 1994, dated 1997).
≈ marks a conversion by molar mass, not a printed value. Like-named read-outs stand apart in the source and are kept apart here.

Legend:
[1] = test system: HR-3Y1 cells; assay: Growth inhibition against HR-3Y1 cells; type: cell-based; settings: 72 hours, 37° C., Giemsa staining
Method: An HR-3Y1 cell suspension (3.0×10^4 cells/ml) prepared by suspending HR-3Y1 cells in a medium comprising MEM medium (Nissui Pharmaceutical Co., Ltd.) and 10% fetal calf serum (hereinafter referred to as Medium A) was put into wells of a 96-well microtiter plate in an amount of 0.1 ml per well. After the cells in the plate were cultivated at 37° C. for 20 hours in a CO2 -incubator, a test compound appropriately diluted with Medium A was added to the wells in an amount of 0.1 ml per well. The cells were further cultivated at 37° C. for 72 hours in the CO2 -incubator. After the cultivation supernatant was removed, the residue was washed once with physiological saline and then treated with 0.1 ml of methanol for 10 minutes to fix the cells. The cells were stained with 0.1 ml of Giemsa's staining solution [Giemsa's staining solution, Merck Art 9204 (Merck & Co., Inc.): physiological saline=1:10] for 5 minutes. After the staining solution was removed, the residue was washed once with 0.2 ml of water. Then, the dye was extracted with 0.2 ml of 0.1 N hydrochloric acid and the absorbance was measured at 620 nm with a microplate reader.
The concentration of the test compound at which the growth of the cells is inhibited by 50% (IC50) was calculated by comparing the absorbance of untreated cells with those of the cells treated with the test compound at known concentrations.

[2] = Solubility; type: physicochemical
[3] = test system: Staphylococcus aureus ATCC 6538P; assay: Antibacterial activity (MIC), agar dilution method; type: cell-based; settings: ATCC6538P, pH 7
Method: (§1) The antibacterial activity was determined by the agar dilution method using a medium (pH 7) which comprises 3 g/l Bacto-tryptone (Difco Laboratories),3 g/l meat extract, 1 g/f yeast extract, 1 g/l glucose and 16 g/l agar.

[4] = test system: Enterococcus faecium ATCC 10541; assay: Antibacterial activity (MIC), agar dilution method; type: cell-based
Method: as §1

[5] = test system: Candida albicans ATCC 10231; assay: Antibacterial activity (MIC), agar dilution method; type: cell-based
Method: as §1

[6] = test system: BALB 3T3/H-ras cells; assay: Growth inhibition against BALB 3T3/H-ras cells; type: cell-based; settings: Mus musculus, 72 hours, 37° C., Giemsa staining
Method: A BALB 3T3/H-ras cell suspension (3.0×10^4 cells/ml) prepared by suspending BALB 3T3/H-ras cells ([…]) in a medium comprising MEM medium (Nissui Pharmaceutical Co., Ltd.) and 10% fetal calf serum (hereinafter referred to as Medium A) was put into wells of a 96-well microtiter plate in an amount of 0.1 ml per well. After the cells in the plate were cultivated at 37° C. for 20 hours in a CO2 -incubator, a test compound appropriately diluted with Medium A was added to the wells in an amount of 0.1 ml per well. The cells were further cultivated at 37° C. for 72 hours in the CO2 -incubator. After the cultivation supernatant was removed, the residue was washed once with physiological saline and then treated with 0.1 ml of methanol for 10 minutes to fix the cells. The cells were stained with 0.1 ml of Giemsa's staining solution [Giemsa's staining solution, Merck Art 9204 (Merck & Co., Inc.): physiological saline=1:10] for 5 minutes. After the staining solution was removed, the residue was washed once with 0.2 ml of water. Then, the dye was extracted with 0.2 ml of 0.1 N hydrochloric acid and the absorbance was measured at 620 nm with a microplate reader. […]

[7] = test system: isogenic tumor in K-BALB mice; assay: Antitumor activity against isogenic tumor system in K-BALB mice; type: in vivo; settings: 10.0 mg/kg, intraperitoneal, 5 consecutive days from 7th day after s.c. transplantation, BALB/c mouse
Method: The antitumor activity against an isogenic tumor system in K-BALB mice was measured according to the method described in Proc. Natl. Acad. Sci., 90, 2281 (1993). That is, an isogenic tumor in K-BALB mice was resected from a donor mouse, and a 2×2×2 mm (8 mm^3) tumor piece was subcutaneously transplanted into a BALB/c mouse at the ventral side using a trocar. After the graft survival was confirmed on the 7th day after the transplantation, a test compound was intraperitoneally administered for 5 consecutive days from the same day. The longer diameter and the shorter diameter of the tumor were measured with slide calipers, and the tumor volume was calculated according to the formula: (longer diameter)×(shorter diameter)^2 /2 [Cancer Chemother. Rep., Part III, 3, 1 (1972)]. The antitumor effect was evaluated in terms of T/C, the ratio of the tumor volume of a test compound-treated group (T) to that of an untreated group (C).

[8] = Staphylococcus aureus ATCC 6538P, agar dilution, read-out: MIC
[9] = ATCC10541, Enterococcus faecium ATCC 10541, agar dilution, pH 7, read-out: MIC
[10] = ATCC10231, Candida albicans ATCC 10231, agar dilution, pH 7, read-out: MIC

| SMILES | IC50 [1] [nM] | Solubility in DMSO, chloroform, acetone and ethyl acetate [2] | Solubility in water and hexane [2] | MIC [3, 8] [µg/mL] | MIC [4, 9] [µg/mL] | MIC [5, 10] [µg/mL] | IC50 [6] [nM] | T/C (ratio of tumor volume of treated group to untreated group) [7] | MIC ([3]; Staphylococcus aureus) [µg/mL] | MIC ([4]; Enterococcus faecium, ATCC10541, pH 7) [µg/mL] | MIC ([5]; Candida albicans, ATCC10231, pH 7) [µg/mL] |
| --- | --- | --- | --- | --- | --- | --- | --- | --- | --- | --- | --- |
| CO[C@H]1/C=C/C=C/C=C/C[C@H](OC(=O)C2(NC(=O)C3CCCCC3)CC2)[C@H](C)[C@@H](O)/C(C)=C\CCC2=CC(=O)C=C(NC(=O)C1)C2=O [UCF116-A3] | 950 | Soluble | insoluble | 41.7 (≈ 64.3 µM) | 83.3 (≈ 128 µM) | 41.7 (≈ 64.3 µM) | – | – | – | – | – |
| CO[C@H]1/C=C/C=C/C=C/C[C@H](OC(=O)[C@@H](C)NC(=O)C2=CCCCC2)[C@H](C)[C@@H](O)/C(C)=C\CCc2cc(O)cc(c2O)NC(=O)C1 [UCF116-B] | 350 | Soluble | insoluble | 41.7 (≈ 65.5 µM) | 41.7 (≈ 65.5 µM) | 20.8 (≈ 32.7 µM) | 390 | 0.25 | – | – | – |
| C/C=C(\C)C(=O)N[C@H](C)C(=O)O[C@H]1C/C=C/C=C/C=C/[C@H](OC)CC(=O)Nc2cc(O)cc(c2O)CC/C=C(/C)[C@H](O)[C@H]1C [UCF116-D] | – | Soluble | insoluble | – | – | – | 660 | – | 83.3 (≈ 136 µM) | 83.3 (≈ 136 µM) | 83.3 (≈ 136 µM) |
